Results on three compounds are retold here after patent publication US9006209B2, “Uracyl spirooxetane nucleoside phosphoramidates” (Janssen Products, LP, priority 2010, dated 2015).

Each structure is given as a SMILES string.

One data set deals with HIV. The settings on record: described in Org. Biomol. Chem., 2003, 3514-3526; cited from earlier work.
For data set [1], the system named is HCV replicon (HCV type 1b NS3-NS5B) in Huh-7 luc/neo cells. Put plainly: HCV replicon assay (Huh-Luc, luciferase readout). Type of data set: cell-based, HCV genotype 1b. The settings on record: Hepatitis C virus, Huh-7, 72 h, three days incubation, luciferase activity. As to the method: (§1) The in vitro antiviral activity against HCV of the compound of formula I was tested in a cellular HCV replicon system based on Lohmann et al. (1999) Science 285:110-113, with the further modifications described by Krieger et al. (2001) Journal of Virology 75: 4614-4624 (incorporated herein by reference), which is further exemplified in the examples section. This model, while not a complete infection model for HCV, is widely accepted as the most robust and efficient model of autonomous HCV RNA replication currently available. It will be appreciated that it is important to distinguish between compounds that specifically interfere with HCV functions from those that exert cytotoxic or cytostatic effects in the HCV replicon model, and as a consequence cause a decrease in HCV RNA or linked reporter enzyme concentration. […]
The replicon cells were plated in 384-well plates in the presence of the test and control compounds which were added in various concentrations. Following an incubation of three days, HCV replication was measured by assaying luciferase activity (using standard luciferase assay substrates and reagents and a Perkin Elmer ViewLux™ ultraHTS microplate imager). […] The inhibitory activity of the compound on luciferase activity was monitored on the Huh-Luc cells, enabling a dose-response curve for the test compound. […]
Background: In antiviral work, replicon cells carry a viral genome segment that copies itself.

A short description of data set [2]: Cytotoxicity in Huh-7 cells. In kind it is cell-based. The note with it: human. The procedure:
as §1, with “concentration. Assays are known in the field for the evaluation of cellular cytotoxicity based for example on the activity of mitochondrial enzymes using fluorogenic redox dyes such as resazurin. Furthermore, cellular counter screens exist for the evaluation of non-selective inhibition of linked reporter gene activity, such as firefly luciferase.” for “concentration.”

On to `Cc1cn([C@@H]2O[C@H](CO)[C@@H](O)[C@]23CCO3)c(=O)[nH]c1=O` [1-(2-O,2-C-ethano-β-D-ribofuranosyl)thymine], for which the “activity against HIV” value in the data set with HIV is “no activity was found”. With `O=c1ccn([C@@H]2O[C@H](CO)[C@@H](O)[C@]23CCO3)c(=O)[nH]1` [1-(2-O,2-C-ethano-β-D-ribofuranosyl)uracil], in the data set on HIV, the “activity against HIV” value is reported as “no activity was found”. A word on the EC50: it is the concentration giving half of the maximal effect. A higher EC50 goes with lower potency in that assay. As a reminder, the CC50 is the concentration giving 50% cytotoxicity. `CCCCOC(=O)[C@H](C)N[P@@](=O)(OC[C@H]1O[C@@H](n2ccc(=O)[nH]c2=O)[C@@]2(CCO2)[C@@H]1O)Oc1ccccc1` [P1, butyl N-[(R)-{[(4R,5R,7R,8R)-5-(2,4-dioxo-3,4-dihydro-pyrimidin-1(2H)-yl)-8-hydroxy-1,6-dioxaspiro[3.4]oct-7-yl]methoxy}(phenoxy)-phosphoryl]-L-alaninate] yielded a concentration giving a half-maximal response (EC50) in data set [1] of 4.47 µM. This compound also gave a CC50 in data set [2] above 98 µM.
